From US20080139804A1, “Photosensitive Compounds” (priority 2005, published 2008)
Values joined by “and” are separate entries in the source; they are usually repeats but may differ in a detail not shown here. Equal values may be shown once. “Also recorded” adds a separate entry of the source.

Key:
[1] = patients administered therewith; cited from earlier work
cancer cells = settings: photo-irradiation; cited from earlier work
[2] = Photophysical characteristics: generation of singlet oxygen (near infrared emission); type: physicochemical; settings: excitation at 563 nm, emission at 1270 nm in near infrared light
Text: Also, the generation of singlet oxygen was confirmed with excitation at 563 nm and emission at 1270 nm in near infrared light.

[3] = In vivo pharmacokinetics of zinc coproporphyrin-I in HeLa tumor-bearing nude mice (tissue fluorescence); design: species or system (BALB/c) nude mouse; settings: 25 mg/kg intravenous in physiological saline, back and muscle, excitation 405 nm, fluorescence 580 nm
Procedure: In the back of a (BALB/c) nude mouse, 5×10^6 HeLa cells in 0.1 ml were transplanted intradermally. When the tumor grew to 12-17 mm diameter, 25 mg/kg of zinc coproporphyrin-I in physiological saline was intravenously injected, and mice were sacrificed at each time shown in FIG. 2, and then zinc coproporphyrin-I in 3 kinds of tissues (tumor, back and muscle) was measured with excitation at 405 nm and fluorescence at 580 nm.

[4] = Photophysical characteristics: absorption spectrum; type: physicochemical
Text: Measurement of Photophysical Characteristics of Zinc Coproporphyrin-I

HeLa tumor = assay: Drug efficacy of the agent for photodynamic therapy: laser irradiation of HeLa tumor in nude mouse, HE-stained sections; settings: 203 mg/kg i.v.; YAG-Dye laser 580 nm after 28 minutes, 100 J/cm^2; tumors excised 24 hours after irradiation
Procedure: To the back of a (BALB/c) nude mouse, 5×10^6 HeLa cells in 0.1 ml were intradermally transplanted. […] The wavelength was 580 nm. The light was emitted horizontally to the side of the tumor. To observe the necrosis layer, the tumors were excised out at 24 hours after the laser irradiation, fixed in 20% formaldehyde solution and embedded in paraffin. Sections were prepared, stained with HE and observed.

[5] = Anti-cellular activity with and without light irradiation, in vitro system using mice; type: cell-based
Text: (§1) Thus, after systemic administration of these compounds systemically, cancer tissues can be selectively killed, and the cancer can be treated without side effects by irradiating light only on the cancer tissues. Therefore, these compounds can be used as photodynamic therapy agents not only for surface cancer types (for example, breast cancer, skin cancer, esophageal cancer) but also deep cancer types (for example, gastric cancer, lung cancer).

DNA = DNA breakage under light irradiation; type: biochemical; settings: under the irradiation of 350 nm light
Text: as §1

Molecule: C=CC1=C(C)C2=CC3=C(/C=C/NO)C(C)(O)C(=CC4=NC(=CC5=NC(=CC1=N2)C(C)=C5CCC(=O)N[C@@H](CC(=O)[O-])C(=O)[O-])C(CCC(=O)N[C@@H](CC(=O)[O-])C(=O)[O-])=C4C)N3.[Na+].[Na+].[Na+].[Na+] (stereo partly shown) [ATX-S10 (Na)]
- complete excretion period from the body [1]: 7 to 8 h

Molecule: coproporphyrin-III
- toxic effect on cancer cells compared to that of hematoporphyrin (cancer cells): superior toxic effect

Molecule: zinc coproporphyrin-I
- generation of singlet oxygen [2]: confirmed
- time until excreted out of the body [3]: 3 to 4 days
- absorption peaks [4]: 403 nm and 535 nm and 571 nm
- cells appearing to be dead (HeLa tumor): about 10 % of the total cells
- histological observations after light irradiation of the HeLa tumor (HeLa tumor): thrombus formation in the capillary vessels and hemorrhage inside of the tissues; also recorded: anucleated cells, chromatin condensed cells and cells with ruptured vacuoles were seen
- anti-cellular activity under the irradiation of light ([5]; irradiation of light which induces DNA cleavage): strong anti-cellular activity
- anti-cellular activity by themselves ([5]; without light irradiation): do not demonstrate any anti-cellular activity
- DNA breakage (DNA): can break DNA efficiently
